Results as given in the supplement of paper PMC10307832.

Legend:
Experiment in all cases: relative viability (nuclei count vs DMSO), 5 days (fraction); higher = more cells survive
[1] = tested on: NCI-H1563
Summary of the method: (§1)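 Values are medians from duplicate plates. Each reflects relative viability, defined as the nuclei count of treated wells over that of vehicle wells. Lung cancer cell lines in 1536-well plates were pin-tool dosed one day after seeding with one drug alone or with a fixed anchor-drug dose plus five library-drug doses (not always all listed) in √10 steps, then fixed, stained and imaged at 4× after 5 days.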

[2] = tested on: NCI-H1650
Summary of the method: as §1

[3] = tested on: NCI-H2085
Summary of the method: as §1

[4] = tested on: EPLC-272H
Summary of the method: as §1

[5] = tested on: SW 900
Summary of the method: as §1

[6] = tested on: RERF-LC-KJ
Summary of the method: as §1

[7] = tested on: NCI-H1793
Summary of the method: as §1

[8] = tested on: ABC-1
Summary of the method: as §1

[9] = tested on: LOU-NH91
Summary of the method: as §1

[10] = tested on: NCI-H1993
Summary of the method: as §1

[11] = tested on: NCI-H647
Summary of the method: as §1

[12] = tested on: NCI-H3122
Summary of the method: as §1

[13] = tested on: NCI-H520
Summary of the method: as §1

[14] = tested on: 201T
Summary of the method: as §1

[15] = tested on: EKVX
Summary of the method: as §1

[16] = tested on: NCI-H2405
Summary of the method: as §1

[17] = tested on: NCI-H2170
Summary of the method: as §1

[18] = tested on: HCC-44
Summary of the method: as §1

[19] = tested on: COR-L23
Summary of the method: as §1

[20] = tested on: NCI-H2347
Summary of the method: as §1

[21] = tested on: NCI-H2023
Summary of the method: as §1

[22] = tested on: NCI-H1734
Summary of the method: as §1

[23] = tested on: PC-14
Summary of the method: as §1

[24] = tested on: NCI-H441
Summary of the method: as §1

SMILES: C[C@@H]1CN(CC(=O)Nc2ccc3c(c2)Cc2cccc(-c4cc(=O)cc(N5CCOCC5)o4)c2S3)C[C@H](C)O1 + CCNC(=O)c1noc(-c2cc(C(C)C)c(O)cc2O)c1-c1ccc(CN2CCOCC2)cc1 [Luminespib] (partner 0.01 µM)
- relative viability ([1]; first compound 0.04 µM): 0.512
- relative viability ([1]; first compound 0.1265 µM): 0.514
- relative viability ([1]; first compound 0.4 µM): 0.477
- relative viability ([1]; first compound 4 µM): 0.514
- relative viability ([2]; first compound 0.04 µM): 0.212
- relative viability ([2]; first compound 0.1265 µM): 0.23
- relative viability ([2]; first compound 0.4 µM): 0.18
- relative viability ([2]; first compound 4 µM): 0.171
- relative viability ([3]; first compound 0.04 µM): 0.477
- relative viability ([3]; first compound 0.1265 µM): 0.509
- relative viability ([3]; first compound 0.4 µM): 0.404
- relative viability ([3]; first compound 4 µM): 0.397
- relative viability ([4]; first compound 0.04 µM): 0.519
- relative viability ([4]; first compound 0.1265 µM): 0.381
- relative viability ([4]; first compound 0.4 µM): 0.26
- relative viability ([4]; first compound 4 µM): 0.254
- relative viability ([5]; first compound 0.04 µM): 0.166
- relative viability ([5]; first compound 0.1265 µM): 0.165
- relative viability ([5]; first compound 0.4 µM): 0.169
- relative viability ([5]; first compound 4 µM): 0.178
- relative viability ([6]; first compound 0.04 µM): 1.18
- relative viability ([6]; first compound 0.1265 µM): 1.18
- relative viability ([6]; first compound 0.4 µM): 1.19
- relative viability ([6]; first compound 4 µM): 0.709
- relative viability ([7]; first compound 0.04 µM): 0.141
- relative viability ([7]; first compound 0.1265 µM): 0.177
- relative viability ([7]; first compound 0.4 µM): 0.164
- relative viability ([7]; first compound 4 µM): 0.135
- relative viability ([8]; first compound 0.1265 µM): 0.64
- relative viability ([8]; first compound 0.4 µM): 0.633
- relative viability ([8]; first compound 4 µM): 0.521
- relative viability ([9]; first compound 0.04 µM): 0.39
- relative viability ([9]; first compound 0.1265 µM): 0.358
- relative viability ([9]; first compound 0.4 µM): 0.3
- relative viability ([9]; first compound 4 µM): 0.371
- relative viability ([10]; first compound 0.04 µM): 0.872
- relative viability ([10]; first compound 0.1265 µM): 0.913
- relative viability ([10]; first compound 0.4 µM): 0.621
- relative viability ([10]; first compound 4 µM): 0.762
- relative viability ([11]; first compound 0.04 µM): 0.121
- relative viability ([11]; first compound 0.1265 µM): 0.153
- relative viability ([11]; first compound 0.4 µM): 0.152
- relative viability ([11]; first compound 4 µM): 0.163
- relative viability ([12]; first compound 0.04 µM): 0.0752
- relative viability ([12]; first compound 0.1265 µM): 0.102
- relative viability ([12]; first compound 0.4 µM): 0.0706
- relative viability ([12]; first compound 4 µM): 0.0744
- relative viability ([13]; first compound 0.04 µM): 0.249
- relative viability ([13]; first compound 0.1265 µM): 0.256
- relative viability ([13]; first compound 0.4 µM): 0.224
- relative viability ([13]; first compound 4 µM): 0.221
- relative viability ([14]; first compound 0.04 µM): 1.06
- relative viability ([14]; first compound 0.1265 µM): 1.05
- relative viability ([14]; first compound 0.4 µM): 1.04
- relative viability ([14]; first compound 4 µM): 1.01
- relative viability ([15]; first compound 0.04 µM): 0.802
- relative viability ([15]; first compound 0.1265 µM): 0.874
- relative viability ([15]; first compound 0.4 µM): 0.955
- relative viability ([15]; first compound 4 µM): 0.814
- relative viability ([16]; first compound 0.04 µM): 0.648
- relative viability ([16]; first compound 0.1265 µM): 0.744
- relative viability ([16]; first compound 0.4 µM): 0.726
- relative viability ([16]; first compound 4 µM): 0.612
- relative viability ([17]; first compound 0.04 µM): 0.661
- relative viability ([17]; first compound 0.1265 µM): 0.67
- relative viability ([17]; first compound 0.4 µM): 0.677
- relative viability ([17]; first compound 4 µM): 0.86
- relative viability ([18]; first compound 0.04 µM): 0.9
- relative viability ([18]; first compound 0.1265 µM): 1.04
- relative viability ([18]; first compound 0.4 µM): 1.19
- relative viability ([18]; first compound 4 µM): 0.949
- relative viability ([19]; first compound 0.04 µM): 0.793
- relative viability ([19]; first compound 0.1265 µM): 0.705
- relative viability ([19]; first compound 0.4 µM): 0.729
- relative viability ([19]; first compound 4 µM): 0.458
- relative viability ([20]; first compound 0.04 µM): 0.926
- relative viability ([20]; first compound 0.1265 µM): 0.475
- relative viability ([20]; first compound 0.4 µM): 0.438
- relative viability ([20]; first compound 4 µM): 0.534
- relative viability ([21]; first compound 0.04 µM): 0.691
- relative viability ([21]; first compound 0.1265 µM): 0.75
- relative viability ([21]; first compound 0.4 µM): 0.543
- relative viability ([21]; first compound 4 µM): 0.37
- relative viability ([22]; first compound 0.04 µM): 0.264
- relative viability ([22]; first compound 0.1265 µM): 0.212
- relative viability ([22]; first compound 0.4 µM): 0.195
- relative viability ([22]; first compound 4 µM): 0.291
- relative viability ([23]; first compound 0.04 µM): 0.142
- relative viability ([23]; first compound 0.1265 µM): 0.122
- relative viability ([23]; first compound 0.4 µM): 0.15
- relative viability ([23]; first compound 4 µM): 0.144
- relative viability ([24]; first compound 0.04 µM): 0.305
- relative viability ([24]; first compound 0.1265 µM): 0.354
- relative viability ([24]; first compound 0.4 µM): 0.274
- relative viability ([24]; first compound 4 µM): 0.309
